Laboratory results taken from patent US8013153B2, “Substituted pyrimidine kinase inhibitors” (Janssen Pharmaceutica, N.V., priority 2006, dated 2011).
pIC50: −log10 of the molar value. Entries after “also recorded” stand apart in the source; their conditions may differ.

Assays:
A375 malignant melanoma = assay: Inhibition of in vitro cell proliferation (A375); format: cell-based, human; conditions: Homo sapiens, A-375, 14C-thymidine incorporation;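 note: cells plated for 24 h, given compound for 24 h, then labelled with 14C-thymidine for another 24 h, with DMSO-only wells as control and counts read by scintillation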
HCT-116 colon carcinoma = assay: Inhibition of in vitro cell proliferation (HCT116); format: cell-based, human; conditions: Homo sapiens, HCT-116, 14C-thymidine incorporation;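 note: cells exposed to compound for 24 h, then 14C-thymidine added for a further 24 h and its uptake into DNA counted by scintillation, DMSO-only wells as control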
[1] = tested on: spontaneous intestinal adenoma formation; assay: C57BL/6J-APC Min-mouse model of human adenomatous polyposis coli; format: in vivo, C57BL/6J-Apc min mice; conditions: 100 mg/kg orally once-daily; vehicle 47±7, baseline 23±4
Description: The ability of Compound 50 to inhibit angiogenesis and tumor growth was tested in a spontaneous tumor model. the pre-cancerous polyp formation in the mouse model of human intestinal tumorigenesis.
Transgenic C57BL/6J-Apc min mice heterozygous for a dominant nonsense Apc mutation are highly susceptible to spontaneous intestinal adenoma formation (homozygous mice are not viable). One hundred percent of these animals will develop polyps by 12 weeks of age. This model is widely used for studying prevention of intestinal adenoma formation and is well described in the literature (Yang K, Edelmann W, Fan K, et. al. A mouse model of human familial adenomatous polyposis. J Exp Zool. 1997 15; 277(3):245-54).
Female C57BL/6J-Apc^Min mice (Jackson Laboratory, MN), 5 weeks of age, were housed (up to 10 mice per group) for a minimum of one week. Animals were then sorted into treatment groups based on body weight such that the mean body weight for the animals in each group was approximately the same. Small cohorts of animals (n=6) were sacrificed at day 1, before treatment to get a baseline number of polyps (mean polyp number at beginning of study). […]
Animals in the treated group (n=10) were dosed daily with Compound 50 at 100 mg/kg orally q.d. for one week. […] The intestine of each mouse was excised, perfused, stained (0.01% Trypan Blue) and polyps were counted under 10× magnification.

tyrosine kinase KIT = tyrosine kinase KIT (Homo sapiens, UniProt P10721); assay: KIT Kinase Screening Assay
Chain of tyrosine kinase KIT (P10721 26-976): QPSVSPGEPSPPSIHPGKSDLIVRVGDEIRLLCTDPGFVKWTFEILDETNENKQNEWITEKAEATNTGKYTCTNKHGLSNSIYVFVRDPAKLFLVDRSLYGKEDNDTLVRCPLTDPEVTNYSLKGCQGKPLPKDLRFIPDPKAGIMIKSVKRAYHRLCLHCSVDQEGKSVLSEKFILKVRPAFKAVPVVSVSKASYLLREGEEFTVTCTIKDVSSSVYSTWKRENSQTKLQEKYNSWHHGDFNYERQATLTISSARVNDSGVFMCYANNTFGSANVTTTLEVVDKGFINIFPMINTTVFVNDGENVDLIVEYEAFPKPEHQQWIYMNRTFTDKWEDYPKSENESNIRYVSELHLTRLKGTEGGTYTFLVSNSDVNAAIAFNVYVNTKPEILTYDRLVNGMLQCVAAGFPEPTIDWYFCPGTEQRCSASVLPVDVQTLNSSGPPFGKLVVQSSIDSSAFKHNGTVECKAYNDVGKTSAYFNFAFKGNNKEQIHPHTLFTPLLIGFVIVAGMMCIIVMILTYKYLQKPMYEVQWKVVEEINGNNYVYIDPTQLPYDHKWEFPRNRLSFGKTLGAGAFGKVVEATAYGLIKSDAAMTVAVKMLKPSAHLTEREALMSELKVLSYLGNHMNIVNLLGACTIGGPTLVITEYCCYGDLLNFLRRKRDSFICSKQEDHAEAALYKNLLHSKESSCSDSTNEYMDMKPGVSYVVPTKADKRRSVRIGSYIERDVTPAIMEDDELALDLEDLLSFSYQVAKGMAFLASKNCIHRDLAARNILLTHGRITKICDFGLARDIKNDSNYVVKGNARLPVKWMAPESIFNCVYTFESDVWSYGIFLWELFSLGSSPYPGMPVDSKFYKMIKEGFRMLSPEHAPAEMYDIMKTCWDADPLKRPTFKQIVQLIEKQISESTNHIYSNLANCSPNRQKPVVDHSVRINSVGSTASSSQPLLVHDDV

B-Raf = B-Raf (Homo sapiens, UniProt P15056); assay: RAF Kinase Screening Assay (B-Raf); conditions: Compound 50 tested at 30 μM
Chain of B-Raf (P15056 whole entry, species assumed): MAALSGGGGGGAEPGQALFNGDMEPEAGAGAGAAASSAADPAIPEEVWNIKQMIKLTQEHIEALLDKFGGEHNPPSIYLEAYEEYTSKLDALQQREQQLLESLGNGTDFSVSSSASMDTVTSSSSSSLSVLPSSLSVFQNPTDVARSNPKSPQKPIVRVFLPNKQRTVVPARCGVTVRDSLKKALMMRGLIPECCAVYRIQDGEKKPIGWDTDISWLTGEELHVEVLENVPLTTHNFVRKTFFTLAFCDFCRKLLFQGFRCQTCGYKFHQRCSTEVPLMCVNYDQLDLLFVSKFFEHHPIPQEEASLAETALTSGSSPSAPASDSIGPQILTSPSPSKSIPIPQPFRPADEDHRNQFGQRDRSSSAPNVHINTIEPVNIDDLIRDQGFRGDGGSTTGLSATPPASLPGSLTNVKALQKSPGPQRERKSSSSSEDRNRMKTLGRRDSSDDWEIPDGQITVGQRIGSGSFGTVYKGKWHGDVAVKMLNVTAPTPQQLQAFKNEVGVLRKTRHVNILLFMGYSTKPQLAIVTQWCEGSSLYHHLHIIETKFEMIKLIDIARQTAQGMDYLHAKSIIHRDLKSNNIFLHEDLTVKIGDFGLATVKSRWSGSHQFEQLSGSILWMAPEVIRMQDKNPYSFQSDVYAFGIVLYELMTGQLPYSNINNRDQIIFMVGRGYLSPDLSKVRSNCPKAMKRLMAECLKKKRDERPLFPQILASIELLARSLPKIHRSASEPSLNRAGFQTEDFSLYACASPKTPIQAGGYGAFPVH

murine Aurora-A = biological target: T1, murine Aurora-A (Mus musculus, UniProt P97477); assay: Aurora-A Screening Assay; format: biochemical
T1 construct: replaced with the full length protein encoding the murine Aurora-A; made in house; host or cells: sf9 insect cells
T1 sequence (P97477 1-395): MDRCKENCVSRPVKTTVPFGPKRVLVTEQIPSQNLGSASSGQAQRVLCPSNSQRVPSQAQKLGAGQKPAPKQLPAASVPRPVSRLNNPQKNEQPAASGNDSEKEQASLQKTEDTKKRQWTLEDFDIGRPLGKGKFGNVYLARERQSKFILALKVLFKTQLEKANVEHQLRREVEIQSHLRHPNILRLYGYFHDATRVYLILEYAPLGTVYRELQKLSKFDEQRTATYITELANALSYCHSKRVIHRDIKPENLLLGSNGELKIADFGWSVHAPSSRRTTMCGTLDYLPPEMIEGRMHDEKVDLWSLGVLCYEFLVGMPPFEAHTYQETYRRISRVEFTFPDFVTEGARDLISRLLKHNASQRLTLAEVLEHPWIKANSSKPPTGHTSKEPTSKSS

[2] = tested on: Human Umbilical Vein Endothelial Cells (HUVEC); assay: VEGF Mediated Cell Migration Assay; format: cell-based; conditions: VEGF 10 ng/mL, VEGF control = 100%
HER2 cytoplasmic domain = biological target: T2, HER2 cytoplasmic domain (Homo sapiens, UniProt P04626); assay: HER2 Kinase Screening Assay; format: biochemical; conditions: > means no observed 50% inhibition at the indicated test concentration; ~ means approximately 50% inhibition at that concentration
T2 construct: polyhistidine (N)
T2 sequence (P04626 676-1255 limits assumed): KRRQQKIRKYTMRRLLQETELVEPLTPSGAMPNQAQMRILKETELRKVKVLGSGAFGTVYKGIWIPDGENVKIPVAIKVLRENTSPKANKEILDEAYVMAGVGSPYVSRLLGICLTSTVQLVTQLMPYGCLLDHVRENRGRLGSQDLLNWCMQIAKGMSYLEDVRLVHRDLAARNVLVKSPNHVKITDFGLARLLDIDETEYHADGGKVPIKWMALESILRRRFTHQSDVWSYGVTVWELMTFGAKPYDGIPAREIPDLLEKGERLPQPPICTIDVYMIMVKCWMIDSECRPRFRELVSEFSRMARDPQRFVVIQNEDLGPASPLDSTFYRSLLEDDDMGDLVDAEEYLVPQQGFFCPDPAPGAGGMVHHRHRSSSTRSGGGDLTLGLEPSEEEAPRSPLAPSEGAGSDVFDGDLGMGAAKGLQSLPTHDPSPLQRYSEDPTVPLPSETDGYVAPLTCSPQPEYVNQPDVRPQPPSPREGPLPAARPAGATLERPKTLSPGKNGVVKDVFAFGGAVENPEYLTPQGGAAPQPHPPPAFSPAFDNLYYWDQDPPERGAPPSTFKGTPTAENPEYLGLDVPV

## CCNC(=O)Nc1ccc(Oc2ncnc(N)c2/C=N/OC)cc1Cl [Cpd 50, 1-{4-[6-amino-5-(methoxyimino-methyl)-pyrimidin-4-yloxy]-2-chloro-phenyl}-3-ethyl-urea]
A375 malignant melanoma
  IC50: 3.91 µM
HCT-116 colon carcinoma
  IC50: 3.7 µM
[1]
  polyp counts: 27±7
Tyrosine kinase KIT
  pIC50: 6.30
B-Raf
  activity against B-Raf: no activity; also recorded: not active
Murine Aurora-A
  pIC50: < 4.00
[2]; 50 nM
  % Stimulation of cell migration: 82%
[2]; 100 nM
  % Stimulation of cell migration: 60%
[2]; 500 nM
  % Stimulation of cell migration: 59%
[2]; 1 μM
  % Stimulation of cell migration: 34.5%
HER2 cytoplasmic domain
  pIC50: < 4.00
